Measurements taken from patent publication US20260209260A1, “VECTORIZED NHC IRIDIUM(III) COMPLEXES AND USE THEREOF IN PHOTODYNAMIC THERAPY AND/OR DIAGNOSTIC” (CENTRE NATIONAL DE LA RECHERCHE SCIENTIFIQUE, priority 2022, published 2026).
“And” between values parts separate entries of the source, which are not always exact repeats. Equal entries are not always repeated. Where two headings read alike, the source gives them in different places.

How the values were obtained:
[1] = Emission lifetime measurement; assay type: physicochemical
Description: Fluorescence lifetime measurements were performed by an Edinburgh FLS920 spectrofluorimeter equipped with a TCC900 card for data acquisition in time-correlated single-photon counting experiments (0.5 ns time resolution) with a D2 lamp and an LDH—P-C-405 pulsed diode laser. The estimated experimental error is 2 nm on the band maximum (5% on the lifetime, 10% on the fluorescence quantum yield).
The emission lifetimes of biotin-vectorized complexes (I-a) to (I-l) range from 138 ns to 411 ns, among them, the lifetime of biotin-vectorized complexes (I-c), (I-e), (I-k) are 411, 224, and 322 ns respectively. The emission lifetimes of FTS-vectorized complexes (II-a) to (II-l) range from 167 ns to 486 ns, among them, the lifetime of FTS-vectorized complexes (II-c) and (II-k) are 319 and 486 ns respectively. The emission lifetimes of PSMA-vectorized complexes (III-a) to (III-l) are in the range of 159-649 ns, among them, the lifetime of complexes (III-a) and (III-k) were 248 and 649 ns, respectively. The emission lifetimes of Fc-vectorized complexes (IV-a) to (IV-l) are in the range of 178-228 ns.

[2] = test system: T24 bladder cancer cells; experiment: Cell viability assay (MTT), dark and blue light; assay type: cell-based, Human; details: for Photosensitizing index (PI) T24: dark vs blue light 458 nm; for SI (vs NIH-3T3) T24 Blue: blue light 458 nm
Description: (§1) Cells were grown in humidified incubators at 37° C. in 5% CO2. Murine MC3T3 osteoblast and NIH-3T3 fibroblast cells-used as non-tumor cell models-were cultured in a-MEM medium and DMEM medium supplemented with 10% fetal bovine serum (FBS) and 1% Penicillin/Streptomycin (P/S) antibiotics, respectively. Human T24 bladder, MGHU3 bladder, Scaber bladder, A549 lung, MCF7 breast, MiaPaCa2 pancreas cancer cells were cultured in DMEM medium supplemented with 10% FBS and 1% P/S antibiotics. […] Human Hela cervix and HepG2 liver cancer cells were cultured EMEM medium supplemented with 10% FBS and 1% P/S antibiotics.
(§2) MTT reagent (3-(4,5-dimethylthiazol-2-yl)-2,5-diphenyltetrazolium bromide) was used to determine cell death as originally described by Mosmann. Briefly, cells were seeded from 5,000 to 10,000 cells/well in 24-well plates (1 mL) depending on the cell type and allowed to attach overnight. The complexes were prepared in DMSO. The concentration of the complexes was calculated based on the elemental composition of the complexes determined by the elemental analyses. All cell viability experiments were carried out with a fixed concentration of 0.1% (v/v) DMSO. After 72 h of treatment, cells were incubated at 37° C. and 5% CO2 with 25 μL of MTT solution (5 mg/ml; Sigma-Aldrich) in 24-well plates for 3 to 4 h. After solubilization with 500 μL of DMSO, formazan was quantified spectrophotometrically with a microplate reader at 570 nm absorbance (ClarioSTAR, BMG LabTech). […] All the results were calculated from data obtained in at least three independent experiments performed in triplicate.
(§3) Two sets of experiments were conducted in parallel for each complex to be studied:
(§4) 1. The cells were incubated with the different complexes (in the dark) for 72 h.
(§5) 2. The cells were incubated for 8 h with the different complexes (in the dark), then irradiated for 10 min, followed by an incubation in the dark up to 72 h.

[3] = test system: NIH-3T3 fibroblast cells (non-tumor); experiment: Cell viability assay (MTT), dark and blue light; assay type: cell-based, Murine
Description: as §1, §2, §3, §4, §5

[4] = Lipophilicity: octanol-water partition coefficient, shake-flask method; details: n-octanol/water, shake-flask, mean of at least three determinations
Description: The octanol-water partition coefficients (P) of all the complexes were determined using a shake-flask method^8. Water (100 mL, distilled after milli-Q purification) and n-octanol (100 mL, Sigma Aldrich, ACS spectrophotometric grade, ≥99%) were shaken together for 24 h to allow saturation of both phases. Stock solutions of the compounds ([…]) were prepared in the aqueous phase. Aliquots (2 mL) of each of these stock solutions were then added to an equal volume of the n-octanol phase. The resultant biphasic solution was mixed for 15 min and then centrifuged (3000 tr/min, 5 min) to separate the phases. The concentrations of the complex in the organic and aqueous phases were then determined using UV absorbance spectroscopy (260 nm). The blank is the water saturated with n-octanol. Log P was defined as logarithm of the ratio of the concentrations of the complex in the organic and aqueous phases (values reported are the means of at least three separated determinations).
The Log P values have been determined by a classical shake-flask method.

[5] = Luminescence emission spectra and quantum yield; assay type: physicochemical; details: room temperature; reference POPOP in hexane or rhodamine B in ethanol
Description: Fluorescence and phosphorescence emission spectra were obtained with a HORIBA JOBIN YVON, fluromax-4 and spectrofluorometer.
Luminescence quantum yields were measured according to the method of Demas and Crosby, on solution samples at RT. The quantum yield is defined as: […]
Where ΦP is the quantum yield of the sample, ΦR is the know quantum yield of the reference standard. […].
The luminescence spectra of vectorized iridium(III) complexes were determined in CH2Cl2 at room temperature (Table 3).

[6] = UV/Vis absorption spectra; assay type: physicochemical; details: room temperature; for maximum absorption, lowest-lying bands in the visible region over 360 nm: CH2Cl2 or CH2Cl2/MeOH (1:1); for λmax (nm) ε (M^−1 · cm^−1): air-saturated CH2Cl2 or CH2Cl2/MeOH (1:1), 50 μM, ε in brackets, sh = shoulder
Description: UV/Vis absorption spectra were recorded at RT on solutions contained in quartz cuvettes (optical pathlength 1 cm, Hellma®) with a PerkinElmer® UV/VIS/NIR spectrophotometer Lambda 950 and a PerkinElmer® detector UV/VIS/NIR Accessory 2D Detector Module.

[7] = 8 h in the dark, blue light 458 nm 10 min, then dark up to 72 h, read-out: GI50 T24 Blue
[8] = in the dark, 72 h, read-out: GI50 T24 Dark
[9] = 8 h in the dark, blue light 458 nm 10 min, then dark up to 72 h, read-out: GI50 NIH-3T3 Blue
[10] = in the dark, 72 h, read-out: GI50 NIH-3T3 Dark

Row | SMILES | τ1 emission lifetime [1] [ns] | GI50 [2, 7] | SI (vs NIH-3T3) T24 Dark [2] | Photosensitizing index (PI) T24 ([2]; listed as l-b) | GI50 [2, 8] | GI50 [3, 9] [µM] | GI50 [3, 10] [µM] | Log P [4] | ΦP emission phosphorescence quantum yield [5] [%] | maximum absorption, lowest-lying bands in the visible region over 360 nm [6] | λmax (nm) ε (M^−1 · cm^−1) [6] | SI (vs NIH-3T3) T24 Blue [2] | Photosensitizing index (PI) T24 [2]
1 | Cc1ccc2[c](c1)[Ir-3]13([c]4cc(C)ccc4-c4cccc[n+]41)([c]1n(CCCNC(=O)CCCC[C@@H]4SC[C@@H]5NC(=O)N[C@@H]54)cc[n+]1-c1cccc[n+]13)[n+]1ccccc1-2.F[P-](F)(F)(F)(F)F [I-b] | 177 | 8.3 µM | >7.3 | 1.7 | 13.7 µM | > 100 | > 100 | 0.43 ± 0.01 | 0.5 | around 380 nm | 314 (sh) (18240), 382 (6150) nm (M^−1 · cm^−1) | – | –
2 | COC(=O)c1ccc2[c](c1)[Ir-3]13([c]4cc(C(=O)OC)ccc4-c4cccc[n+]41)([c]1n(CCCNC(=O)CCCC[C@@H]4SC[C@@H]5NC(=O)N[C@@H]54)cc[n+]1-c1cccc[n+]13)[n+]1ccccc1-2.F[P-](F)(F)(F)(F)F [I-c] | 411 | 24.9 µM and 24.5 µM | >3.7 | – | 26.7 µM and 26.9 µM | > 100 | > 100 | −0.78 ± 0.01 | 5.9 | – | 310 (sh) (16860), 358 (4090), 400 (3295) nm (M^−1 · cm^−1) | >4.1 | 1.1
3 | COC(=O)c1cccc2[c]1[Ir-3]13([c]4c(C(=O)OC)cccc4-c4cccc[n+]41)([c]1n(CCCNC(=O)CCCC[C@@H]4SC[C@@H]5NC(=O)N[C@@H]54)cc[n+]1-c1cccc[n+]13)[n+]1ccccc1-2.F[P-](F)(F)(F)(F)F [I-d] | 184 | 28.9 µM and 26.9 µM | >3.8 | – | 26.3 µM | > 100 | > 100 | −0.10 ± 0.01 | 0.7 | around 370 nm | 373 (4260) nm (M^−1 · cm^−1) | >3.7 | 1.0
